This note sets out measurements from US11634447B2 (priority 2012, dated 2023).

Each structure is given as a SMILES string.

The target of the first assay is bacterial strain LF82 binding to the glycoprotein BSA-(Mannose)3. The assay can be described thus: Bacterial Binding Assay (BBA). In kind it is cell-based, Escherichia coli. Particulars: LF82/Luciferase strain binding to BSA-(Man)3 coated plates, luminescence; read-out: Bacterial Binding Assay IC50. The procedure, abridged: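 Inhibition of LF82/luciferase E. coli adhesion is read as luminescence after washing off unbound cells. Compound and bacteria (10^7 per well) are co-incubated 40-75 min at room temperature on wells coated with 0.5-2 μg/mL BSA-(Man)3, with BSA-only wells as background; IC50 values derived.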
With `OC[C@H]1O[C@H](C#Cc2ccc(-c3ccc(C#C[C@H]4O[C@H](CO)[C@@H](O)[C@H](O)[C@@H]4O)s3)s2)[C@@H](O)[C@@H](O)[C@@H]1O` [Compound 128], the IC50 came out at 22 nM.

The same assay, now with this note: read-out: Bacterial Binding Assay IC50, LF82/Luciferase strain binding to BSA-(Man)3 coated plates, luminescence.
Turning to `O=C1CCC2(CCO1)c1cc(C#C[C@H]3O[C@H](CO)[C@@H](O)[C@H](O)[C@@H]3O)ccc1-c1ccc(C#C[C@H]3O[C@H](CO)[C@@H](O)[C@H](O)[C@@H]3O)cc12` [Compound 218, 2,7-bis[2-[(2R,3S,4R,5S,6R)-3,4,5-trihydroxy-6-(hydroxymethyl)tetrahydropyran-2-yl]ethynyl]spiro[fluorene-9,5oxepane]-2one], the IC50 is 0.09 nM.

Consider `OC[C@H]1O[C@H](C#Cc2ccc3c(c2)c2cc(C#C[C@H]4O[C@H](CO)[C@@H](O)[C@H](O)[C@@H]4O)ccc2n3-c2ccccc2)[C@@H](O)[C@@H](O)[C@@H]1O` [Compound 164], for which the IC50 came to 35 nM.

As to `COc1cc([C@H]2O[C@H](CO)[C@@H](O)[C@H](O)[C@@H]2O)ccc1-c1ccc([C@H]2O[C@H](CO)[C@@H](O)[C@H](O)[C@@H]2O)c(C)c1` [Compound 147], the IC50 worked out at 134 nM.

As for `CC(C)(C#N)c1cc(C#C[C@H]2O[C@H](CO)[C@@H](O)[C@H](O)[C@@H]2O)ccc1C#C[C@H]1O[C@H](CO)[C@@H](O)[C@H](O)[C@@H]1O` [Compound 70], the IC50 was found to be 15 nM.

On to `COc1cc([C@H]2O[C@H](CO)[C@@H](O)[C@H](O)[C@@H]2O)ccc1C#C[C@H]1O[C@H](CO)[C@@H](O)[C@H](O)[C@@H]1O` [Compound 145], for which the IC50 amounted to 430 nM.

For `COC(=O)Cc1cc(-c2cccc([C@H]3O[C@H](CO)[C@@H](O)[C@H](O)[C@@H]3O)c2)ccc1-c1cccc([C@H]2O[C@H](CO)[C@@H](O)[C@H](O)[C@@H]2O)c1` [Compound 140, Methyl 2-[2,5-bis[3-[(2R,3S,4R,5S,6R)-3,4,5-trihydroxy-6-(hydroxymethyl)tetrahydropyran-2-yl]phenyl]phenyl]acetate], the IC50 came out at 353 nM.

With `OC[C@H]1O[C@H](C#Cc2ccc(C#C[C@H]3O[C@H](CO)[C@@H](O)[C@H](O)[C@@H]3O)c3[nH]ncc23)[C@@H](O)[C@@H](O)[C@@H]1O` [Compound 171, (2R,3S,4R,5S,6R)-2-(hydroxymethyl)-6-[2-[7-[2-[(2R,3S,4R,5S,6R)-3,4,5-trihydroxy-6-(hydroxymethyl)tetrahydropyran-2-yl]ethynyl]-1H-indazol-4-yl]ethynyl]tetrahydropyran-3,4,5-triol], the IC50 turned out to be 13 nM.

Consider `OC[C@H]1O[C@H](C#Cc2ccc(C#C[C@H]3O[C@H](CO)[C@@H](O)[C@H](O)[C@@H]3O)c(Cl)c2)[C@@H](O)[C@@H](O)[C@@H]1O` [Compound 102, (2R,3S,4R,5S,6R)-2-[2-[3-chloro-4-[2-[(2R,3S,4R,5S,6R)-3,4,5-trihydroxy-6-(hydroxymethyl)tetrahydropyran-2-yl]ethynyl]phenyl]ethynyl]-6-(hydroxymethyl)tetrahydropyran-3,4,5-triol], for which the IC50 turned out to be 24 nM.

`Cc1cc(C#Cc2ccc([C@H]3O[C@H](CO)[C@@H](O)[C@H](O)[C@@H]3O)c(C)c2)ccc1[C@H]1O[C@H](CO)[C@@H](O)[C@H](O)[C@@H]1O` [Compound 152, (2R,3S,4R,5S,6R)-2-(hydroxymethyl)-6-[2-methyl-4-[2-[3-methyl-4-[(2R,3S,4R,5S,6R)-3,4,5-trihydroxy-6-(hydroxymethyl)tetrahydropyran-2-yl]phenyl]ethynyl]phenyl]tetrahydropyran-3,4,5-triol]: the IC50 stood at 31 nM.

`O=C(O)CCC1(CCO)c2cc(C#C[C@H]3O[C@H](CO)[C@@H](O)[C@H](O)[C@@H]3O)ccc2-c2ccc(C#C[C@H]3O[C@H](CO)[C@@H](O)[C@H](O)[C@@H]3O)cc21` [Compound 219, 3-[9-(2-hydroxyethyl)-2,7-bis[2-[(2R,3S,4R,5S,6R)-3,4,5-trihydroxy-6-(hydroxymethyl)tetrahydropyran-2-yl]ethynyl]fluoren-9-yl]propanoic acid]: the IC50 came out at 3.8 nM.

Regarding `CCc1cc(C#C[C@H]2O[C@H](CO)[C@@H](O)[C@H](O)[C@@H]2O)ccc1C#C[C@H]1O[C@H](CO)[C@@H](O)[C@H](O)[C@@H]1O` [Compound 98, (2R,3S,4R,5S,6R)-2-[2-[3-ethyl-4-[2-[(2R,3S,4R,5S,6R)-3,4,5-trihydroxy-6-(hydroxymethyl)tetrahydropyran-2-yl]ethynyl]phenyl]ethynyl]-6-(hydroxymethyl)tetrahydropyran-3,4,5-triol], the IC50 was determined as 12 nM.

Take `CN1CCC(Cn2c3cc(C#C[C@H]4O[C@H](CO)[C@@H](O)[C@H](O)[C@@H]4O)ccc3c3ccc(C#C[C@H]4O[C@H](CO)[C@@H](O)[C@H](O)[C@@H]4O)cc32)CC1` [Compound 188, (2R,3S,4R,5S,6R)-2-(hydroxymethyl)-6-[2-[9-[(1-methyl-4-piperidyl)methyl]-7-[2-[(2R,3S,4R,5S,6R)-3,4,5-trihydroxy-6-(hydroxymethyl)tetrahydropyran-2-yl]ethynyl]carbazol-2-yl]ethynyl]tetrahydropyran-3,4,5-triol]: the IC50 amounted to 4.3 nM.

For `OC[C@H]1O[C@H](C#Cc2ccc3c(c2)C2(CCOCC2)c2cc(C#C[C@H]4O[C@H](CO)[C@@H](O)[C@H](O)[C@@H]4O)ccc2-3)[C@@H](O)[C@@H](O)[C@@H]1O` [Compound 162, (2R,2,3S,3,4R,4,5S,5,6R,6)-6,6((2tetrahydrospiro[fluorene-9,4pyran]-2,7-diyl)bis(ethyne-2,1-diyl))bis(2-(hydroxymethyl)tetrahydro-2H-pyran-3,4,5-triol)], the IC50 came to 0.11 nM.

Regarding `OC[C@H]1O[C@H](C#Cc2ccc(C#C[C@H]3O[C@H](CO)[C@@H](O)[C@H](O)[C@@H]3O)c(OC(F)(F)F)c2)[C@@H](O)[C@@H](O)[C@@H]1O` [Compound 87, (2R,3S,4R,5S,6R)-2-(hydroxymethyl)-6-[2-[3-(trifluoromethoxy)-4-[2-[(2R,3S,4R,5S,6R)-3,4,5-trihydroxy-6-(hydroxymethyl)tetrahydropyran-2-yl]ethynyl]phenyl]ethynyl]tetrahydropyran-3,4,5-triol], the IC50 is 17 nM.

`Cc1cc([C@H]2O[C@H](CO)[C@@H](O)[C@H](O)[C@@H]2O)ccc1-c1ccc([C@H]2O[C@H](CO)[C@@H](O)[C@H](O)[C@@H]2O)cc1` [Compound 63]: the IC50 is 112 nM.

`N#CC1(C(=O)c2c(C#C[C@H]3O[C@H](CO)[C@@H](O)[C@H](O)[C@@H]3O)ccc3c2C2(CCNCC2)c2cc(C#C[C@H]4O[C@H](CO)[C@@H](O)[C@H](O)[C@@H]4O)ccc2-3)CC1` [Compound 230, 1-[2,7-bis[2-[(2R,3S,4R,5S,6R)-3,4,5-trihydroxy-6-(hydroxymethyl)tetrahydropyran-2-yl]ethynyl]spiro[fluorene-9,4piperidine]-1carbonyl]cyclopropanecarbonitrile]: the IC50 is 0.16 nM.

Regarding `COc1cc(C#C[C@H]2O[C@H](CO)[C@@H](O)[C@H](O)[C@@H]2O)ncc1C#C[C@H]1O[C@H](CO)[C@@H](O)[C@H](O)[C@@H]1O` [Compound 134, (2R,3S,4R,5S,6R)-2-(hydroxymethyl)-6-[2-[4-methoxy-5-[2-[(2R,3S,4R,5S,6R)-3,4,5-trihydroxy-6-(hydroxymethyl)tetrahydropyran-2-yl]ethynyl]-2-pyridyl]ethynyl]tetrahydropyran-3,4,5-triol], the IC50 came to 44 nM.

With `OC[C@H]1O[C@H](C#Cc2ccc(C#C[C@H]3O[C@H](CO)[C@@H](O)[C@H](O)[C@@H]3O)s2)[C@@H](O)[C@@H](O)[C@@H]1O` [Compound 138], the IC50 came to 31 nM.

With `CC(C)CC1(O)c2cc(C#C[C@H]3O[C@H](CO)[C@@H](O)[C@H](O)[C@@H]3O)ccc2-c2ccc(C#C[C@H]3O[C@H](CO)[C@@H](O)[C@H](O)[C@@H]3O)cc21` [Compound 169, (2R,3S,4R,5S,6R)-2-[2-[9-hydroxy-9-isobutyl-7-[2-[(2R,3S,4R,5S,6R)-3,4,5-trihydroxy-6-(hydroxymethyl)tetrahydropyran-2-yl]ethynyl]fluoren-2-yl]ethynyl]-6-(hydroxymethyl)tetrahydropyran-3,4,5-triol], the IC50 came to 0.66 nM.

In the case of `CCn1c2ccc(C#C[C@H]3O[C@H](CO)[C@@H](O)[C@H](O)[C@@H]3O)cc2c2cc(C#C[C@H]3O[C@H](CO)[C@@H](O)[C@H](O)[C@@H]3O)ccc21` [Compound 107, (2R,3S,4R,5S,6R)-2-[2-[9-ethyl-6-[2-[(2R,3S,4R,5S,6R)-3,4,5-trihydroxy-6-(hydroxymethyl)tetrahydropyran-2-yl]ethynyl]carbazol-3-yl]ethynyl]-6-(hydroxymethyl)tetrahydropyran-3,4,5-triol], the IC50 was 13 nM.

As to `OCCC1(CCO)c2cc(C#C[C@H]3O[C@H](CO)[C@@H](O)[C@H](O)[C@@H]3O)ccc2-c2ccc(C#C[C@H]3O[C@H](CO)[C@@H](O)[C@H](O)[C@@H]3O)cc21` [Compound 193, (2R,3S,4R,5S,6R)-2-[2-[9,9-Bis(2-hydroxyethyl)-7-[2-[(2R,3S,4R,5S,6R)-3,4,5-trihydroxy-6-(hydroxymethyl)tetrahydropyran-2-yl]ethynyl]fluoren-2-yl]ethynyl]-6-(hydroxymethyl)tetrahydropyran-3,4,5-triol], the IC50 came to 0.27 nM.

For `Cc1c(C)c(C#C[C@H]2O[C@H](CO)[C@@H](O)[C@H](O)[C@@H]2O)c(C)c(C)c1C#C[C@H]1O[C@H](CO)[C@@H](O)[C@H](O)[C@@H]1O` [Compound 84, (2R,3S,4R,5S,6R)-2-(hydroxymethyl)-6-[2-[2,3,5,6-tetramethy1-4-[2-[(2R,3S,4R,5S,6R)-3,4,5-trihydroxy-6-(hydroxymethyl)tetrahydropyran-2-yl]ethynyl]phenyl]ethynyl]tetrahydropyran-3,4,5-triol], the IC50 was 315 nM.
